Measurements reported in paper PMC7660557, “Identification of a non-classical three-dimensional nuclear localization signal in the intestinal fatty acid binding protein” (PLoS ONE, 2020).

How the values were obtained:
Experiment in all cases: fluorescence titration of purified protein, hyperbolic fit, […]°C
[1] = target: T1, drFabp2 (intestinal fatty acid binding protein) (Danio rerio, UniProt A0A8M1P5F0, K17A/K28A/R29A)
T1 construct: gene fabp2; Full-length mutant, recombinant from E. coli BL21 (DE3), delipidated (apo)

[2] = target: T2, drFabp2 (intestinal fatty acid binding protein) (Danio rerio, UniProt A0A8M1P5F0, K17A/K30A/R29A)
T2 construct: gene fabp2; Full-length mutant, recombinant from E. coli BL21 (DE3), delipidated (apo)

[3] = target: T3, drFabp2 (intestinal fatty acid binding protein) (Danio rerio, UniProt A0A8M1P5F0)
T3 construct: gene fabp2; Full-length wild-type, recombinant from E. coli BL21 (DE3), delipidated (apo)
T3 sequence (A0A8M1P5F0 1-132): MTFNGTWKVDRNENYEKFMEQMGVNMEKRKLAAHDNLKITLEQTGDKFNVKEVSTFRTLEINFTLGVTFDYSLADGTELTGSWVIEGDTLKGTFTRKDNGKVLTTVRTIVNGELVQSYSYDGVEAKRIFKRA

T1 sequence (A0A8M1P5F0 entry or part of it K17A/K28A/R29A): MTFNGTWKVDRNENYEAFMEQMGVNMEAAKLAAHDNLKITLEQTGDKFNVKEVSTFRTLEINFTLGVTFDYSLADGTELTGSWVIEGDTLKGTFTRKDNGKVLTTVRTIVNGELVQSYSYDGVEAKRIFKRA
T2 sequence (A0A8M1P5F0 entry or part of it K17A/R29A/K30A): as the sequence (A0A8M1P5F0 entry or part of it K17A/K28A/R29A) above, with A28K, K30A counted along it

CC1=CC(C)=[N+]2C1=Cc1ccc(CCCCCCCCCCCCCCCC(=O)O)n1[B-]2(F)F [BODIPY FL C16]
Kd [1]: 112 nM
Kd [2]: 129 nM
Kd [3]: 160 nM
